Calls of active or inactive are those of the source.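 Rule for the calls: active = maximal inhibition of USP17 at or above 30% in the confirmation dose-response, a value not among the printed readouts; inactive = the rest.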
molecular target: Ubiquitin carboxyl-terminal hydrolase 17-like protein 5 (Homo sapiens) (UniProt A8MUK1); test: ubiquitin-specific protease 17 DUB inhibitors, concentration-effect assay, cell-free, verification of initial screening actives (AID 1645864); conditions: purified USP17, ubiquitin-rhodamine cleavage fluorescence, 3 h
Sequence (A8MUK1 whole entry, looked up): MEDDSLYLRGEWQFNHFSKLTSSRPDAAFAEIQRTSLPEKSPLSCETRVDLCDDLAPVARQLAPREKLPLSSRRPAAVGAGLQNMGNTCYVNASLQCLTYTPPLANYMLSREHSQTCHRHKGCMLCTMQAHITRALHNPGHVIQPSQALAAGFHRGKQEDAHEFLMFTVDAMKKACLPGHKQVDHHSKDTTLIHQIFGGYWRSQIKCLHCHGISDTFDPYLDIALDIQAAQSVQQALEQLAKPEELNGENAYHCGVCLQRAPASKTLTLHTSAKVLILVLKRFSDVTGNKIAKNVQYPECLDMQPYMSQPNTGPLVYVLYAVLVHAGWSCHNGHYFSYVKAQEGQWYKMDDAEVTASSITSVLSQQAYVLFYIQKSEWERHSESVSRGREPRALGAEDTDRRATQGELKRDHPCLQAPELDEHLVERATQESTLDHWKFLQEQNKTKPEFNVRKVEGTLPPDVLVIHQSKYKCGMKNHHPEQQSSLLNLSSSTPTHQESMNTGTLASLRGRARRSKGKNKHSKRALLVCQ

| Compound | IC50 |
| --- | --- |
| Cc1cc(C(F)(F)F)n(-c2ccc(NC(=O)Nc3cccc(C(F)(F)F)c3)cc2)n1 | 15.4 µM |
| Cc1ccc(C(=O)Nc2cc3c4c(c2)CC(=O)N4CCC3)cc1C | > 50 µM (inactive) |
| COc1cccc(NC(=O)Nc2ccc(CCc3nc4ccccc4[nH]3)cc2)c1 | 49.2 µM |
| Cc1ccc(Cl)cc1NC(=O)c1cc(-c2ccccn2)n[nH]1 | 7.13 µM |
| COc1cccc(-c2nc3cnccn3c2NCc2ccc3c(c2)OCO3)c1 | > 50 µM (inactive) |
| Cc1nc2cc(C(=O)NCCC3=CCCCC3)ccc2n1-c1cccc(F)c1 | > 50 µM (inactive) |
| O=C(Nc1cccc(C(F)(F)F)c1)N1CCCn2c(nc3ccccc32)C1 | 25 µM |
| COc1cccc(N2CCN(c3ccc4nnc(CCC(=O)N5CCc6ccccc6C5)n4n3)CC2)c1 | 28.2 µM |
| CCn1c(SCc2cccc(C)c2)nnc1-c1cnccn1 | > 50 µM (inactive) |
| COC(=O)c1cc2c(ccn2C)n1CC(=O)NC1CC1 | > 50 µM (inactive) |
| CC1CCN(c2nc(F)c3c(c2F)S(=O)(=O)CCN3Cc2cccnc2)CC1 | > 50 µM (inactive) |
| CN1C(=O)c2cc(NC(=O)c3ccccc3Cl)ccc2Oc2ccccc21 | > 50 µM (inactive) |
| COc1cc(-c2nc(C(N)=O)c3[nH]c(=O)n(-c4ccc(C)cc4)c3n2)cc(OC)c1OC | 1.96 µM |
| Cc1ccc2c(c1)N(C)C(=O)c1cc(NC(=O)c3ccc(F)cc3)ccc1O2 | 2.03 µM |
| Nc1nonc1C(=O)NCCNCc1cccc(OCc2ccc(Cl)cc2)c1 | > 50 µM (inactive) |
| Cc1ccccc1Cn1cc(SCC(=O)Nc2ccc3c(c2)OCCO3)c2ccccc21 | > 50 µM (inactive) |
| COc1cccc2sc(N3CCN(c4nc5ccccc5s4)CC3)nc12 | 38 µM |
| N#Cc1ccccc1OCc1csc(-c2ccccc2)n1 | > 50 µM (inactive) |
| O=C(Nc1cc(F)c2nc(N3CCOCC3)ccc2c1)c1ccc(Br)o1 | 42.2 µM |
| CC1CCN(c2nnc(-c3nc(C4CC4)no3)c3ccccc23)CC1 | > 50 µM (inactive) |
| CCn1c(SCC(=O)N2c3ccccc3CC2C)nnc1-c1ccc2c(c1)OCCO2 (stereo not given) | 34.4 µM |
| CCOc1ccc2c(c1)c(=O)c(C(=O)c1ccc(C)cc1)cn2CC(=O)Nc1ccc(OC)c(OC)c1 | 0.464 µM |
| Cn1cc(CCNC(=O)c2cc3ccccc3[nH]2)c2cccnc21 | > 50 µM (inactive) |
| O=C(Cn1cccc1-c1nc(-c2ccccc2)cs1)N1CCOCC1 | 16 µM |
| COc1ccc(NC(=O)COc2ccc3ccc(=O)oc3c2)cc1 | 33.5 µM |

| Compound | IC50 |
| --- | --- |
| COc1ccc(-c2nc3n(n2)C(c2cccc(O)c2)C2=C(CCCC2=O)N3)cc1 (stereo not given) | 41.4 µM |
| Cc1nn(-c2ccc(F)cc2)cc1-c1noc(C(=O)NCc2ccccn2)n1 | 23.5 µM |
| O=C(Nc1cccc2ccccc12)N1CCC(c2nc3c(nnn3Cc3ccc(F)cc3)c(=O)[nH]2)CC1 | 28.6 µM |
| CSc1ccc(CNC(=O)CC2CCN(S(=O)(=O)c3ccc(C)cc3)CC2)cc1 | 23.7 µM |
| O=C(NCc1ccc2c(c1)OCO2)c1cc2c(s1)-c1ccccc1OC2 | 3.99 µM |
| O=C(Nc1ccc(N2CCOCC2)cc1)c1ccc(-c2ccc(N3CCCC3)nn2)cc1 | > 50 µM (inactive) |
| CC(C)Cc1cc(-c2nnc3sc(-c4ccco4)nn23)n[nH]1 | > 50 µM (inactive) |
| COCCCNC(=O)c1ccc(Cn2c(=O)c3ccccc3n(CC(=O)NC3CCCCC3)c2=O)cc1 | 30.6 µM |
| CNC(=O)C1CN(C(=O)c2ccc(OC)cc2)CC12CCCC2 (stereo not given) | > 50 µM (inactive) |
| FC(F)(F)c1cccc(Nc2nnc(-c3cccnc3)s2)c1 | 5.64 µM |
| O=C(/C=C/c1ccc(F)cc1)N1CCc2ccccc2C1 | 37.3 µM |
| O=C(CNS(=O)(=O)c1ccc(F)cc1)N1CCCC(c2nnc3ccccn23)C1 (stereo not given) | > 50 µM (inactive) |
| c1ccc(CCN2CCc3nc4cccnc4cc3C2)nc1 | > 50 µM (inactive) |
| COc1ccc(N2C(=O)[C@@H]3[C@H]4c5ccccc5C=CN4C(C(=O)Nc4ccc5c(c4)OCO5)[C@@H]3C2=O)cc1 (stereo not given in full) | > 50 µM (inactive) |
| Cc1ccc2nc(CNC(=O)c3ccccc3-c3nc(-c4ccc(F)cc4)no3)[nH]c2c1 | 27.2 µM |
| CC(C)(C)C(=O)NC(c1ccccc1)c1nnc(N2CCOCC2)o1 (stereo not given) | > 50 µM (inactive) |
| CNC(=O)c1c2n(c3ncccc13)CCN(S(=O)(=O)c1ccc(-c3ccccc3)cc1)C2 | 15 µM |
| Cc1ccc2nc(CCc3ccc(NS(=O)(=O)c4cccc(Cl)c4C)cc3)[nH]c2c1 | > 50 µM (inactive) |
| Cc1ccc(NC(=O)Cn2cc(S(=O)(=O)N3CCCC3)ccc2=O)cc1 | 19.5 µM |
| CCCc1c(C(=O)O)c(O[C@H]2O[C@H](C)[C@@H](OC)[C@H](OC)[C@@H]2OC)cc2cc3c(c(O)c12)C(=O)c1c(O)cc(O[C@@H]2O[C@@H](C)[C@H](O[C@H]4O[C@H](C)[C@@H](OC)[C@H](OC)[C@@H]4O)[C@@H](OC)[C@H]2O)cc1C3=O | > 50 µM (inactive) |
| CCN1CCN(C(=O)CCCN(c2ccccc2)S(C)(=O)=O)CC1 | > 50 µM (inactive) |
| O=C1c2c(O)cccc2C2(Oc3cccc4cccc(c34)O2)C2OC12 (stereo not given) | 10.1 µM |
| NS(=O)(=O)c1ccc(NS(=O)(=O)c2ccc(NC(=O)Nc3ccc(Cl)cc3)cc2)cc1 | 37.8 µM |
| CC1=C(c2ccc(C)c(C)c2)S(=O)(=O)NC1=NCC(=O)NCCCc1ccccc1 | 12.5 µM |
| O=c1oc2ccccc2c2nn(-c3ccccn3)cc12 | 47.9 µM |
